Literature values as cited in patent publication US20170273596A1, “METHOD FOR MONITORING SWALLOWING” (NESTEC S.A., priority 2014, published 2017).

Assays:
[1] = database Episuite 4.1
[2] = database Episuite 4.1; remark: listed apart in the source

Compound	Volatility: Air/water partition coefficient log K [w/v] [1]	Lipophilicity: Oil/Water partition coefficient log Kow [w/v] [2]
2-Methylpropanal	−2.31	
CC(=O)C(C)=O [2,3-Butanedione]	−5.09	−1.34
CCC(=O)C(C)=O [2,3-Pentanedione]	−4.97	−0.85
CCC(C)C=O (stereo not drawn) [2-Methylbutanal]	−2.20	1.23
CC(C)CC=O [3-Methylbutanal]	−2.19	1.23
CC=O [Acetaldehyde]	−2.56	−0.17
CSC [Dimethylsulfide]	−1.49	0.92
CCCC(=O)OCC [Ethylbutyrate]	−1.79	1.85
C=C(C)[C@H]1CC=C(C)CC1 [Limonene]	0.12	4.38
CS [Methanethiol]	−0.97	0.78
COc1cc(C=O)ccc1O [Vanillin]	−8.47	1.05
